Reference: the NIST ThermoML archive (doi:10.1016/j.fluid.2004.09.013)

Conditions: for mass density: Fluid (supercritical or subcritical phases), Vibrating tube method; for vapor or sublimation pressure: Liquid

C/C=C\C [(Z)-2-butene]
Conditions | mass density [kg/m3]
273.24 K, 530 kPa | 644.99
273.24 K, 5019 kPa | 650.08
273.24 K, 10002 kPa | 655.33
273.24 K, 15013 kPa | 660.23
273.24 K, 19996 kPa | 664.79
273.24 K, 24988 kPa | 669.08
273.24 K, 29997 kPa | 673.15
273.24 K, 35005 kPa | 677.01
273.24 K, 39991 kPa | 680.66
278.25 K, 531 kPa | 639.3
278.25 K, 4987 kPa | 644.61
278.25 K, 10000 kPa | 650.13
278.25 K, 15004 kPa | 655.23
278.25 K, 19984 kPa | 659.97
278.25 K, 25004 kPa | 664.45
278.25 K, 30003 kPa | 668.65
278.25 K, 34993 kPa | 672.62
278.25 K, 39994 kPa | 676.39
283.26 K, 528 kPa | 633.56
283.26 K, 5005 kPa | 639.17
283.26 K, 9984 kPa | 644.91
283.26 K, 14999 kPa | 650.24
283.26 K, 19995 kPa | 655.17
283.26 K, 25010 kPa | 659.81
283.26 K, 29992 kPa | 664.14
283.26 K, 35004 kPa | 668.25
283.26 K, 39997 kPa | 672.15
288.27 K, 531 kPa | 627.75
288.27 K, 4995 kPa | 633.64
288.27 K, 10005 kPa | 639.69
288.27 K, 14999 kPa | 645.22
288.27 K, 20014 kPa | 650.37
288.27 K, 25005 kPa | 655.16
288.27 K, 29991 kPa | 659.64
288.27 K, 34992 kPa | 663.87
288.27 K, 40003 kPa | 667.9
293.28 K, 532 kPa | 621.87
293.28 K, 4990 kPa | 628.07
293.28 K, 10006 kPa | 634.4
293.28 K, 20011 kPa | 645.53
293.28 K, 25006 kPa | 650.48
293.28 K, 30000 kPa | 655.14
293.28 K, 34996 kPa | 659.52
293.28 K, 39986 kPa | 663.65
293.29 K, 14995 kPa | 640.16
298.29 K, 29993 kPa | 650.63
298.3 K, 528 kPa | 615.89
298.3 K, 5009 kPa | 622.46
298.3 K, 9991 kPa | 629.06
298.3 K, 14998 kPa | 635.11
298.3 K, 20004 kPa | 640.67
298.3 K, 24996 kPa | 645.82
298.3 K, 34987 kPa | 655.14
298.3 K, 40002 kPa | 659.43
303.31 K, 568 kPa | 609.88
303.31 K, 4986 kPa | 616.72
303.31 K, 9987 kPa | 623.69
303.31 K, 15011 kPa | 630.03
303.31 K, 20004 kPa | 635.8
303.31 K, 25003 kPa | 641.15
303.31 K, 29993 kPa | 646.12
303.31 K, 34986 kPa | 650.78
303.31 K, 40003 kPa | 655.2
308.32 K, 610 kPa | 603.77
308.32 K, 5003 kPa | 610.96
308.32 K, 9990 kPa | 618.26
308.32 K, 14985 kPa | 624.84
308.32 K, 19996 kPa | 630.86
308.32 K, 24991 kPa | 636.41
308.32 K, 29986 kPa | 641.56
308.32 K, 34983 kPa | 646.37
308.32 K, 40002 kPa | 650.92
313.2 K, 842 kPa | 598.01
313.2 K, 25002 kPa | 631.74
313.21 K, 4983 kPa | 605.15
313.21 K, 9999 kPa | 612.86
313.21 K, 14998 kPa | 619.73
313.21 K, 19993 kPa | 625.98
313.21 K, 29990 kPa | 637.05
313.21 K, 34989 kPa | 642.02
313.21 K, 39990 kPa | 646.68
318.21 K, 898 kPa | 591.77
318.21 K, 4989 kPa | 599.26
318.21 K, 9999 kPa | 607.36
318.21 K, 14989 kPa | 614.54
318.21 K, 19986 kPa | 621.05
318.21 K, 24990 kPa | 627.03
318.21 K, 30002 kPa | 632.56
318.21 K, 34994 kPa | 637.68
318.21 K, 39987 kPa | 642.47
323.21 K, 965 kPa | 585.41
323.21 K, 4984 kPa | 593.22
323.21 K, 9985 kPa | 601.76
323.21 K, 14986 kPa | 609.3
323.21 K, 20004 kPa | 616.11
323.21 K, 25000 kPa | 622.31
323.21 K, 29993 kPa | 628.01
323.21 K, 34993 kPa | 633.32
323.21 K, 40000 kPa | 638.29
328.21 K, 14983 kPa | 604.03
328.21 K, 25010 kPa | 617.59
328.21 K, 34998 kPa | 628.95
328.21 K, 40002 kPa | 634.07
328.22 K, 1031 kPa | 578.91
328.22 K, 4985 kPa | 587.11
328.22 K, 9992 kPa | 596.13
328.22 K, 19995 kPa | 611.12
328.22 K, 29991 kPa | 623.48
333.22 K, 1102 kPa | 572.28
333.22 K, 4993 kPa | 580.89
333.22 K, 10002 kPa | 590.44
333.22 K, 14991 kPa | 598.72
333.22 K, 19994 kPa | 606.12
333.22 K, 24988 kPa | 612.8
333.22 K, 30003 kPa | 618.94
333.22 K, 34991 kPa | 624.59
333.22 K, 40010 kPa | 629.87
338.22 K, 1174 kPa | 565.5
338.22 K, 4996 kPa | 574.54
338.22 K, 9996 kPa | 584.64
338.22 K, 14984 kPa | 593.34
338.22 K, 19986 kPa | 601.06
338.22 K, 25003 kPa | 608.03
338.22 K, 29995 kPa | 614.37
338.22 K, 34988 kPa | 620.2
338.22 K, 39995 kPa | 625.64
343.22 K, 1261 kPa | 558.56
343.22 K, 4987 kPa | 568.03
343.22 K, 9997 kPa | 578.77
343.22 K, 14987 kPa | 587.91
343.22 K, 19988 kPa | 595.98
343.22 K, 25014 kPa | 603.24
343.22 K, 30005 kPa | 609.78
343.22 K, 34992 kPa | 615.82
343.22 K, 40014 kPa | 621.42
348.22 K, 1356 kPa | 551.46
348.22 K, 4981 kPa | 561.37
348.22 K, 10002 kPa | 572.81
348.22 K, 14996 kPa | 582.44
348.22 K, 19993 kPa | 590.86
348.22 K, 25004 kPa | 598.39
348.22 K, 30012 kPa | 605.19
348.22 K, 34983 kPa | 611.41
348.22 K, 39993 kPa | 617.18
353.22 K, 1456 kPa | 544.16
353.22 K, 5002 kPa | 554.62
353.22 K, 14994 kPa | 576.89
353.22 K, 19998 kPa | 585.7
353.22 K, 24991 kPa | 593.51
353.22 K, 29987 kPa | 600.55
353.22 K, 34994 kPa | 606.99
353.22 K, 40002 kPa | 612.94
353.23 K, 10003 kPa | 566.75
358.22 K, 1569 kPa | 536.68
358.22 K, 4987 kPa | 547.6
358.22 K, 9992 kPa | 560.57
358.22 K, 15002 kPa | 571.3
358.22 K, 19998 kPa | 580.5
358.22 K, 24995 kPa | 588.63
358.22 K, 29992 kPa | 595.93
358.22 K, 34990 kPa | 602.57
358.22 K, 40000 kPa | 608.7
363.23 K, 1690 kPa | 528.95
363.23 K, 4993 kPa | 540.42
363.23 K, 9989 kPa | 554.28
363.23 K, 15000 kPa | 565.61
363.23 K, 19996 kPa | 575.23
363.23 K, 25014 kPa | 583.72
363.23 K, 29996 kPa | 591.25
363.23 K, 34991 kPa | 598.13
363.23 K, 40007 kPa | 604.46
368.22 K, 1794 kPa | 520.86
368.22 K, 4994 kPa | 533.05
368.22 K, 9998 kPa | 547.94
368.22 K, 15001 kPa | 559.86
368.22 K, 20006 kPa | 569.97
368.22 K, 24996 kPa | 578.78
368.22 K, 30000 kPa | 586.63
368.23 K, 35006 kPa | 593.73
368.23 K, 40001 kPa | 600.21
373.23 K, 1956 kPa | 512.69
373.23 K, 5016 kPa | 525.44
373.23 K, 10014 kPa | 541.44
373.23 K, 15017 kPa | 554.07
373.23 K, 20017 kPa | 564.64
373.23 K, 25015 kPa | 573.81
373.23 K, 30004 kPa | 581.92
373.23 K, 35002 kPa | 589.24
373.23 K, 39988 kPa | 595.91
378.23 K, 2103 kPa | 504.11
378.23 K, 5016 kPa | 517.48
378.23 K, 9997 kPa | 534.7
378.23 K, 15005 kPa | 548.12
378.23 K, 19992 kPa | 559.18
378.23 K, 24999 kPa | 568.75
378.23 K, 29991 kPa | 577.18
378.23 K, 34989 kPa | 584.74
378.23 K, 39985 kPa | 591.64
383.23 K, 2265 kPa | 495.17
383.23 K, 4994 kPa | 509.13
383.23 K, 9994 kPa | 527.89
383.23 K, 15008 kPa | 542.15
383.23 K, 20012 kPa | 553.81
383.23 K, 24996 kPa | 563.74
383.23 K, 29984 kPa | 572.46
383.23 K, 34981 kPa | 580.28
383.23 K, 40007 kPa | 587.41
388.23 K, 2438 kPa | 485.86
388.23 K, 4986 kPa | 500.47
388.23 K, 9987 kPa | 520.91
388.23 K, 14983 kPa | 536.02
388.23 K, 19990 kPa | 548.28
388.23 K, 24990 kPa | 558.67
388.23 K, 30000 kPa | 567.77
388.23 K, 34996 kPa | 575.85
388.23 K, 39999 kPa | 583.17
393.23 K, 2620 kPa | 476.09
393.23 K, 4998 kPa | 491.49

Conditions | vapor or sublimation pressure [kPa]
290.72 K | 166.5
297.95 K | 212.17
306.92 K | 280.95
316.39 K | 369.5
326.09 K | 483.32
331.25 K | 549.64
335.93 K | 625.67
344.91 K | 767.01
345.17 K | 778.59
353.84 K | 949.22
364.75 K | 1196.6
367.83 K | 1274.3
376.36 K | 1508.8
380.95 K | 1643.2
382.47 K | 1703.7
390.94 K | 1988
